This test concerns Pseudomonas aeruginosa PAM1001. Put plainly: checkerboard assay (broth microdilution): levofloxacin MIC in presence of efflux pump inhibitor. The class given is cell-based. Put shortly: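 Reduction of levofloxacin MIC by an efflux pump inhibitor measured against Pseudomonas aeruginosa PAM1001. Each microdilution well held a unique combination of levofloxacin and inhibitor (max 40 μg/mL) in MHB, inoculum 5×10^5 CFU/mL. Readout after 20 h, 35° C: OD650 plus visual inspection.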

Consider `CC(C)(C)c1ccc2ncc(NC(=O)[C@@H]3C[C@@H](OCCN)CN3)cc2c1` [Compound M92, (2S,4R)-4-(2-Aminoethyloxy)-N-(6-(1,1-dimethyl)ethyl-3-quinolyl)-2-pyrrolidinecarboxamide], for which the “Levofloxacin MIC Against P. aerugiuosa PAM1001 in Presence of Efflux Pump Inhibitor (EPI), Minimum Inhibitory Concentration” value reads like this: (EPI Conc. 0 μg/mL) 4 µg/mL; (EPI Conc. 0.625 μg/mL) 4 µg/mL; (EPI Conc. 1.25 μg/mL) 4 µg/mL; (EPI Conc. 2.5 μg/mL) 4 µg/mL; (EPI Conc. 5 μg/ mL) 4 µg/mL; (EPI Conc. 10 μg/mL) 2 µg/mL. Besides, the “Levofloxacin MIC Against P. aerugiuosa PAM1001 in Presence of Efflux Pump Inhibitor (EPI), Minimum Inhibitory Concentration” value turned out to be 0.06 µg/mL (EPI Conc. 20 μg/mL) and 0.008 µg/mL (EPI Conc. 40 μg/mL).

For the compound `N=C(N)N[C@H]1CN[C@H](C(=O)N[C@H](CCc2ccccc2)C(=O)Nc2cnc3ccccc3c2)C1` [Compound M95, (2S,4R)-4-(Guanadinyl)-N-[(1R)-3-phenyl-1-(3-quinolylcarbamoyl)propyl]-2-pyrrolidinecarboxamide], the “Levofloxacin MIC Against P. aerugiuosa PAM1001 in Presence of Efflux Pump Inhibitor (EPI), Minimum Inhibitory Concentration” value runs as follows: (EPI Conc. 0 μg/mL) 4 µg/mL; (EPI Conc. 0.625 μg/mL) 4 µg/mL; (EPI Conc. 1.25 μg/mL) 4 µg/mL; (EPI Conc. 2.5 μg/mL) 4 µg/mL; (EPI Conc. 5 μg/ mL) 4 µg/mL; (EPI Conc. 10 μg/mL) 4 µg/mL. Besides, the “Levofloxacin MIC Against P. aerugiuosa PAM1001 in Presence of Efflux Pump Inhibitor (EPI), Minimum Inhibitory Concentration” value was determined as 0.03 µg/mL (EPI Conc. 20 μg/mL) and 0.015 µg/mL (EPI Conc. 40 μg/mL).

`CC(C)(C)c1ccc2ncc(NC(=O)[C@H]3C[C@H](CN)CN3)cc2c1` [Compound M97, (2R,4R)-4-(Aminomethyl)-N-[6-(1,1-dimethyl)ethyl-3-quiolyl]-2-pyrrolidinecarboxamide]: the “Levofloxacin MIC Against P. aerugiuosa PAM1001 in Presence of Efflux Pump Inhibitor (EPI), Minimum Inhibitory Concentration” value was 4 µg/mL (EPI Conc. 0 μg/mL); 4 µg/mL (EPI Conc. 0.625 μg/mL); 4 µg/mL (EPI Conc. 1.25 μg/mL); 2 µg/mL (EPI Conc. 2.5 μg/mL); 0.5 µg/mL (EPI Conc. 5 μg/ mL); 0.125 µg/mL (EPI Conc. 10 μg/mL). The “Levofloxacin MIC Against P. aerugiuosa PAM1001 in Presence of Efflux Pump Inhibitor (EPI), Minimum Inhibitory Concentration” value runs as follows: (EPI Conc. 20 μg/mL) 0.015 µg/mL; (EPI Conc. 40 μg/mL) 0.008 µg/mL.

Consider `NC[C@@H]1CN[C@@H](C(=O)N[C@H](CCc2ccccc2)CNC(=O)c2cnc3ccccc3c2)C1` [Compound M103, (2R,4R)-4-(Aminomethyl)-N-[(1R)-3-phenyl-1-[(3-quinolylcarboxamido)methyl]propyl]-2-pyrrolidinecarboxamide], for which the “Levofloxacin MIC Against P. aerugiuosa PAM1001 in Presence of Efflux Pump Inhibitor (EPI), Minimum Inhibitory Concentration” value turned out to be 4 µg/mL (EPI Conc. 0 μg/mL); 4 µg/mL (EPI Conc. 0.625 μg/mL); 4 µg/mL (EPI Conc. 1.25 μg/mL); 4 µg/mL (EPI Conc. 2.5 μg/mL); 2 µg/mL (EPI Conc. 5 μg/ mL); 1 µg/mL (EPI Conc. 10 μg/mL). The “Levofloxacin MIC Against P. aerugiuosa PAM1001 in Presence of Efflux Pump Inhibitor (EPI), Minimum Inhibitory Concentration” value (EPI Conc. 20 μg/mL) was found to be 0.03 µg/mL and the “Levofloxacin MIC Against P. aerugiuosa PAM1001 in Presence of Efflux Pump Inhibitor (EPI), Minimum Inhibitory Concentration” value (EPI Conc. 40 μg/mL) amounted to 0.015 µg/mL.

The values above are taken from patent publication US6399629B1, “Efflux pump inhibitors” (priority 1998, dated 2002).
